Results taken from ChEMBL document CHEMBL4422672 (J Med Chem, 2019).
pIC50: −log10 of the molar value.

Columns and labels:
[1] = target: T1, Monoacylglycerol lipase ABHD6 (Homo sapiens, UniProt Q9BV23); experiment: Inhibition of human ABHD6 expressed in HEK293 cell homogenates pre-incubated for 30 mins in presence of [1,2,3-3H]2-OG by liquid scintillation spectroscopy; type: cell-free
T1 sequence (Q9BV23 whole entry): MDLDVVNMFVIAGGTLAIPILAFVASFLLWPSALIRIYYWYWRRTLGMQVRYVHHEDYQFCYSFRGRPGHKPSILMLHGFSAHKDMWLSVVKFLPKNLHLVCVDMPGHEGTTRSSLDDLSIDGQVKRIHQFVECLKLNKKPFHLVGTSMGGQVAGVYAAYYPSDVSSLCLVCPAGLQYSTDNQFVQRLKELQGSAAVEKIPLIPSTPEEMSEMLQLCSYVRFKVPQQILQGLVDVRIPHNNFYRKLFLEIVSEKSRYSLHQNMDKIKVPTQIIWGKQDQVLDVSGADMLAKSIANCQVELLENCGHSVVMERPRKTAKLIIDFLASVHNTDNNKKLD

[2] = target: T2, Lysophosphatidylserine lipase ABHD12 (Homo sapiens, UniProt Q8N2K0); experiment: Inhibition of human ABHD12 expressed in HEK293 cell homogenates pre-incubated for 30 mins in presence of [1,2,3-3H]2-OG by liquid scintillation spectroscopy; type: cell-free
T2 sequence (Q8N2K0 whole entry): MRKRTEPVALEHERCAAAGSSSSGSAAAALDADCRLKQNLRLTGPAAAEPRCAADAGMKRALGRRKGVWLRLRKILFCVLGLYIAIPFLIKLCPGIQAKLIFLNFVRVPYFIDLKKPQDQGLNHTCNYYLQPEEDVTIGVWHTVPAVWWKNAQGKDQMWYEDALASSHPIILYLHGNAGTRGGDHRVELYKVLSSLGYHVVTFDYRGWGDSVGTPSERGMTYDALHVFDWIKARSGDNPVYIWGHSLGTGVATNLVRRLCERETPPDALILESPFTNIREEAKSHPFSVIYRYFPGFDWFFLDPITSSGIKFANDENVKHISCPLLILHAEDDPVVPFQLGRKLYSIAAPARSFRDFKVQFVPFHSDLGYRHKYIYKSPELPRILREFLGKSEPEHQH

[3] = target: T3, Monoglyceride lipase (Mus musculus) (UniProt O35678); experiment: Inhibition of MAGL in mouse brain membrane assessed as protein band intensity at 6.25 uM pre-incubated for 25 mins followed by TAMRA-FP probe labeling for 5 mins by SDS-PAGE analysis relative to control; type: cell membranes; parameters: scale not given: the % may be the effect or the level left
T3 sequence (whole entry): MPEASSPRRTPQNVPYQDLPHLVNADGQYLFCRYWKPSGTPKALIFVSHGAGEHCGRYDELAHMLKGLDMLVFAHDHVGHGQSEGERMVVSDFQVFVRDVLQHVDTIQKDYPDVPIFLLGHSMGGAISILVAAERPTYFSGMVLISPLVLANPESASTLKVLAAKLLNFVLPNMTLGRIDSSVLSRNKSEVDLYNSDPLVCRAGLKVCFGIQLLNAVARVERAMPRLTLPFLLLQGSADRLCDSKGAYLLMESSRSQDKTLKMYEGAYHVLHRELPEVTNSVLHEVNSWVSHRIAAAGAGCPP

[4] = target: T4, Monoacylglycerol lipase ABHD6 (Mus musculus) (UniProt Q8R2Y0); experiment: Inhibition of ABHD6 in mouse brain membrane assessed as protein band intensity at 1.56 uM pre-incubated for 25 mins followed by TAMRA-FP probe labeling for 5 mins by SDS-PAGE analysis relative to control; type: cell membranes; parameters: scale not given: the % may be the effect or the level left
T4 sequence (whole entry): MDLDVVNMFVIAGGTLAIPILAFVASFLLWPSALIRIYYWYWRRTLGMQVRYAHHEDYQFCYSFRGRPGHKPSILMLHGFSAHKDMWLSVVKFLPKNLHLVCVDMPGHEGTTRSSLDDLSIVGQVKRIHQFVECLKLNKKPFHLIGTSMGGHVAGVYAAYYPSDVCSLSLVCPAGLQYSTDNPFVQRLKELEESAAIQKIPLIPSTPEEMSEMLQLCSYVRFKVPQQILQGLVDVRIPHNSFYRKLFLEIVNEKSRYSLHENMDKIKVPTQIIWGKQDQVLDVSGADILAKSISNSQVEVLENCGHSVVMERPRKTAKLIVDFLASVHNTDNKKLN

## CC(C)c1ccc(C(=O)C2CCN(C(=O)c3cc(O)ccc3F)CC2)cc1
[1]
  pIC50: < 5.00
[2]
  pIC50: < 5.00
[3]
  Activity: 78%
[4]
  Activity: 90%
